# Assay results published in patent US12060338B2, “Benzothia(di)azepine compounds and their use as bile acid modulators” (Albireo AB, priority 2019, dated 2024).
# Columns and labels:
# Human IBAT = target: T1, Human IBAT (Homo sapiens, UniProt Q12908); assay: IBAT assay, 3H-taurocholic acid uptake in human IBAT-overexpressing cells; type: cell-based; settings: read-out: hIBAT IC50
# T1 construct: expressed in transfected cells; kept under Puromycin selection
# T1 sequence (Q12908 1-348): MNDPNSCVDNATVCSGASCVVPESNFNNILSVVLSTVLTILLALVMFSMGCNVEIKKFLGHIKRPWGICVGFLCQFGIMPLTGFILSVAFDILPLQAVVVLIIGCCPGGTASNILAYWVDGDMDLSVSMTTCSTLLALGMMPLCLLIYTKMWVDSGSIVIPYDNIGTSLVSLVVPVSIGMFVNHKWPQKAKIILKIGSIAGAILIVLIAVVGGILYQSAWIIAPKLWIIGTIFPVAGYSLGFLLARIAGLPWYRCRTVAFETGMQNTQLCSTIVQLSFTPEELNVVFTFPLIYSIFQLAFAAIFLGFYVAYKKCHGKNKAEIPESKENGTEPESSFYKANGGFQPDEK
# Procedure: (§1) 10,000 cells (Human or Mouse IBAT-overexpressing cells) were seeded in 96-wells plate (Corning CLS3809) in 200 μL MEM-alpha medium (Gibco 12571-063) supplemented with 10% FBS (Gibco 10438026) containing Puromycin (Gibco A1113803) (10 μg/mL) and incubated at 37° C. in 5% CO2 for 48 hours. After incubation, media was decanted from the wells and cells were washed two times with 300 μL of basal MEM-alpha medium (FBS-free). After decanting basal MEM-alpha medium each time, plates were tapped against paper towel to ensure maximum removal of residual media.
# (§2) Test inhibitor dilutions (highest test concentration being 10 μM, 3-fold serial dilution, 10 points) prepared in DMSO (Sigma D2650) were added in incubation mix (maintaining 0.2% final DMSO concentration) containing 0.25 μM 3H-taurocholic acid (ARC ART-1368) and 5 μM of cold taurocholic acid (Sigma T4009). 50 μL of incubation mix containing test inhibitors was then added to the wells (in duplicate) and the plates were incubated for 20 minutes in a CO2 incubator at 37° C. After incubation, the reaction was stopped by keeping the plates on ice water mix for 2-3 minutes and then the incubation mix was aspirated completely from the wells. The wells were washed two times with 250 μL of chilled unlabelled 1 mM taurocholic acid dissolved in HEPES (Gibco 15630080)-buffered (10 mM) HBSS (Gibco 14175079) (pH 7.4). The plates were tapped against a paper towel after every wash to ensure maximum removal of blocking buffer.
# (§3) 100 μL of MicroScint-20 (PerkinElmer 6013621) was added to the wells and kept overnight at room temperature before reading the plates in TopCount NXT™ Microplate Scintillation and Luminescence Counter from PerkinElmer under 3H Test protocol (set at 120 seconds reading time per well).
# (§4) All test compounds were provided in powder form at room temperature. 10 mM DMSO stocks of the test compounds were prepared, aliquoted and stored at −20° C. From the 10 mM DMSO stock of the compounds, a 3-fold serial dilution in DMSO was prepared to get a total of 10 dilutions of the test compounds. 0.5 μL of this dilution in DMSO was added to 250 μL of FBS-free basal media containing 3H-taurocholic acid and cold taurocholic acid to prepare the incubation mixture.
# Human LBAT = target: T2, Human LBAT (Homo sapiens, UniProt Q14973); assay: LBAT assay, 3H-taurocholic acid uptake in human LBAT-overexpressing cells; type: cell-based; settings: read-out: hLBAT IC50
# T2 construct: expressed in transfected cells; kept under Geneticin selection
# T2 sequence (Q14973 1-349): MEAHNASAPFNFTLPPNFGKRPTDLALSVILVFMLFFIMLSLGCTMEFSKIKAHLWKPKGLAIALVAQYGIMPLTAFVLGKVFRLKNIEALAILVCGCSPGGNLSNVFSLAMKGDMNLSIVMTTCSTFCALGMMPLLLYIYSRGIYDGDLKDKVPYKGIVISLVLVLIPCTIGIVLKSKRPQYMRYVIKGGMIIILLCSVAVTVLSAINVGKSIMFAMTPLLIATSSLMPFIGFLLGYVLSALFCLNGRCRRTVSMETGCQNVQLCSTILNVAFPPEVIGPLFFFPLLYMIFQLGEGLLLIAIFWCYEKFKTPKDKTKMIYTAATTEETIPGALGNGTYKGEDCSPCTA
# Procedure: as §1, with “20,000” for “10,000”, “LBAT-overexpressing” for “IBAT-overexpressing”, “100” for “200”, “Geneticin” for “Puromycin”, “10131-027) (1 mg/mL)” for “A1113803) (10 μg/mL)”, “24” for “48”
# For human LBAT, incubation mix was prepared by adding test inhibitor dilutions (3-fold serial dilution in DMSO (Sigma D2650), 10 points) in MEM-alpha (without FBS) containing 0.3 μM 3H-taurocholic acid (ARC ART-1368) and 7.5 μM cold taurocholic acid (Sigma T4009) (maintaining 0.2% final DMSO concentration). For mouse LBAT, incubation mix was prepared by adding test inhibitor dilutions (3-fold serial dilution in DMSO, 10 points) in MEM-alpha (without FBS) containing 0.3 μM 3H-taurocholic acid and 25 μM cold taurocholic acid maintaining 0.2% final DMSO concentration).
# as §2, with “50” for “Test inhibitor dilutions (highest test concentration being 10 μM, 3-fold serial dilution, 10 points) prepared in DMSO (Sigma D2650) were added in incubation mix (maintaining 0.2% final DMSO concentration) containing 0.25 μM 3H-taurocholic acid (ARC ART-1368) and 5 μM of cold taurocholic acid (Sigma T4009). 50”
# as §3, with “well, with normal plate orientation).” for “well).”
# as §4
# [1] = Bidirectional permeability assay (Caco-2 cells); type: in vitro ADME; settings: human; for Papp A→B at 120 min, 10 µM: Caco-2, pH 7.4, absorptive direction A2B; for Papp B→A at 120 min, 10 µM: Caco-2, pH 7.4, secretory direction B2A
# From the text: HepaRG-Based Assay Protocol
# [2] = Bioavailability study in rats; type: in vivo; settings: male, Wistar, plasma; rat; 1 mg/kg intravenous, 10 mg/kg oral
# Procedure: (§5) Male mice (C57BL/6 or CD1) or Wistar rats of 8-10 weeks old were used. For each test compound, two groups of 3 animals each were used. One group was administered a single intravenous dose of 1 mg/kg (vehicle 100% DMSO) through the tail vein and the other group was administered a single oral dose of 10 mg/kg through gavage needle. The group that was administered an oral dose was fasted overnight. Blood samples were collected after 0.083, 0.25, 0.5, 1, 2, 4, 6, 8 and 24 hours following intravenous administration, and after 0.25, 0.5, 1, 2, 4, 6, 8 and 24 hours following oral administration. Blood samples were taken from saphenous vein. 0.2% EDTA was used as the anticoagulant. The samples were analyzed by a discovery grade bioanalytical method developed for the estimation of test compound in plasma, using an LC-MS/MS system.
# urinary total bile acids = assay: Urinary bile acid output in dogs; type: in vivo; settings: male Beagle dogs, once daily for three days at 10 and 50 mg/kg
# Procedure: Male Beagle dogs were used in the study. Animals were dosed with the compound of Example 2 once daily for three days at 10 and 50 mg/kg, respectively. Basal urine samples were collected before study start by cystocentesis. Urine samples were then collected at 2 h and 8 h post-dosing on Day 1 and Day 3. Urine bile acids and urine creatinine analyses were performed at a clinical chemistry lab.
# [3] = Bioavailability study in mice; type: in vivo; settings: male, mouse, plasma, 1 mg/kg intravenous, 10 mg/kg oral
# Procedure: as §5
Structure (SMILES),IC50 (Human IBAT),IC50 (Human LBAT),"Papp A→B at 120 min, 10 µM [1]","Papp B→A at 120 min, 10 µM [1]",bioavailability [2],bioavailability ([3]; C57BL/6 mice),bioavailability ([3]; CD1 mice),urinary total bile acids increase versus baseline (urinary total bile acids)
"CCCC1(C)CN(c2ccccc2)c2cc(SC)c(OC=CC(=O)O)cc2S(=O)(=O)C1 (single isomer, unassigned) [Example 5]",,32 nM,,,,,,
"CCC[C@]1(C)CN(c2ccccc2)c2cc(SC)c(O/C=C/C(=O)O)cc2S(=O)(=O)C1 (single isomer, unassigned) [Example 6]",678 nM,1050 nM,,,,,,
"CCC1(C)CN(c2ccccc2)c2cc(SC)c(O/C=C(\F)C(=O)O)cc2S(=O)(=O)C1 (centres unmarked) [Example 10, (Z)-3-((3-ethyl-3-methyl-7-(methylthio)-1,1-dioxido-5-phenyl-2,3,4,5-tetrahydro-1,5-benzothiazepin-8-yl)oxy)-2-fluoroacrylic acid]",906 nM,83 nM,,,,,,
"CCCC1(C)CN(c2ccccc2)c2cc(SC)c(O/C=C/C(=O)O)cc2S(=O)(=O)C1 (centres unmarked) [Example 4, (E)-3-((3-methyl-7-(methylthio)-1,1-dioxido-5-phenyl-3-propy-2,3,4,5-tetrahydro-1,5-benzothiazepin-8-yl)oxy)acrylic acid]",564 nM,66 nM,,,,,,
"CCC[C@@]1(C)CN(c2ccccc2)c2cc(SC)c(O/C=C(\F)C(=O)O)cc2S(=O)(=O)C1 (single isomer, unassigned) [Example 9]",186 nM,56 nM,,,,,,

# These reach a lower IC50 (Human LBAT). Values come first.
IC50 (Human IBAT),IC50 (Human LBAT),"Papp A→B at 120 min, 10 µM [1]","Papp B→A at 120 min, 10 µM [1]",bioavailability [2],bioavailability ([3]; C57BL/6 mice),bioavailability ([3]; CD1 mice),Structure (SMILES),urinary total bile acids increase versus baseline (urinary total bile acids)
435 nM,23 nM,,,,,,"CCCC1(C)CN(c2ccccc2)c2cc(SC)c(O/C=C(\F)C(=O)O)cc2S(=O)(=O)C1 (centres unmarked) [Example 7, (Z)-2-fluoro-3-((3-methyl-7-(methylthio)-1,1-dioxido-5-phenyl-3-propy-2,3,4,5-tetrahydro-1,5-benzothiazepin-8-yl)oxy)acrylic acid]",
465 nM,5.2 nM,3.6 ×10⁻⁶ cm/s,6.2 ×10⁻⁶ cm/s,,,,"CCC[C@]1(C)CN(c2ccccc2)c2cc(SC)c(O/C=C(\F)C(=O)O)cc2S(=O)(=O)C1 (single isomer, unassigned) [Example 8]",
22.7 nM,17.4 nM,3.6 ×10⁻⁶ cm/s,6.6 ×10⁻⁶ cm/s,34.5%,15.7%,32.1 to 55.7%,"CCCC[C@]1(C)CN(c2ccccc2)c2cc(SC)c(O/C=C(\F)C(=O)O)cc2S(=O)(=O)C1 (single isomer, unassigned) [Example 2]",5- to 10 fold
23.7 nM,14.4 nM,,,,,,"CCCCC1(C)CN(c2ccccc2)c2cc(SC)c(O/C=C(\F)C(=O)O)cc2S(=O)(=O)C1 (centres unmarked) [Example 1, (Z)-3-((3-buty-3-methyl-7-(methylthio)-1,1-dioxido-5-phenyl-2,3,4,5-tetrahydro-1,5-benzothiazepin-8-yl)oxy)-2-fluoroacrylic acid]",
735 nM,9.2 nM,3.6 ×10⁻⁶ cm/s,9.3 ×10⁻⁶ cm/s,,,,"CCCC[C@@]1(C)CN(c2ccccc2)c2cc(SC)c(O/C=C(\F)C(=O)O)cc2S(=O)(=O)C1 (single isomer, unassigned) [Example 3]",
